# Results as given in PMC4303209, “A novel phosphatidylinositol 3-kinase (PI3K) inhibitor directs a potent FOXO-dependent, p53-independent cell cycle arrest phenotype characterized by the differential induction of a subset of FOXO-regulated genes” (Breast Cancer Research : BCR, 2014).
# Tested on: MCF-7 breast cancer cells
# Test: Microarray gene expression analysis (Agilent whole human genome 4 x 44K; compound vs DMSO, LIMMA log2 fold change)
# Type: cell-based
# Details: cell cycle genes
structure (smiles),measurement,setting,value
Oc1cccc(-c2nc(N3CCOCC3)c3oc4ncccc4c3n2)c1 [PI-103],STAT5A log2FC,Gene 6776,0.39
same,STAT5B log2FC,Gene 6777,0.11
same,AURKA log2FC,Gene 6790,-0.02
same,STK10 log2FC,Gene 6793,-0.32
same,AURKC log2FC,Gene 6795,0.0218
same,SUV39H1 log2FC,Gene 6839,-0.50
same,TACC1 log2FC,Gene 6867,0.0342
same,ADAM17 log2FC,Gene 6868,0.53
same,TAF1 log2FC,Gene 6872,0.15
same,TAL1 log2FC,Gene 6886,-0.57
same,TBX3 log2FC,Gene 6926,-0.69
same,TCF3 log2FC,Gene 6929,0.0643
same,DYNLT3 log2FC,Gene 6990,-0.24
same,DYNLT1 log2FC,Gene 6993,-0.03
same,TERF1 log2FC,Gene 7013,0.38
same,TERF2 log2FC,Gene 7014,-0.16
same,TFAP4 log2FC,Gene 7023,0.39
same,NR2F2 log2FC,Gene 7026,0.34
same,TFDP1 log2FC,Gene 7027,-0.56
same,TFDP2 log2FC,Gene 7029,0.41
same,TGFB1 log2FC,Gene 7040,-0.44
same,THBS1 log2FC,Gene 7057,-0.91
same,TNF log2FC,Gene 7124,-1.87
same,TNFAIP3 log2FC,Gene 7128,-0.85
same,TOP2A log2FC,Gene 7153,0.91
same,TOP2B log2FC,Gene 7155,0.99
same,TOP3A log2FC,Gene 7156,-0.05
same,TP53 log2FC,Gene 7157,0.0569
same,TP53BP2 log2FC,Gene 7159,0.35
same,TPR log2FC,Gene 7175,0.74
same,TSC1 log2FC,Gene 7248,0.42
same,TSC2 log2FC,Gene 7249,-0.11
same,TSG101 log2FC,Gene 7251,0.39
same,TTK log2FC,Gene 7272,1.59
same,TUBG1 log2FC,Gene 7283,-0.33
same,UBA52 log2FC,Gene 7311,0.31
same,UBB log2FC,Gene 7314,0.0362
same,UBC log2FC,Gene 7316,0.33
same,UBE2B log2FC,Gene 7320,0.65
same,UBE2D1 log2FC,Gene 7321,0.50
same,UBE2E1 log2FC,Gene 7324,0.0118
same,UBE2I log2FC,Gene 7329,-0.30
same,WEE1 log2FC,Gene 7465,0.0429
same,WNT5A log2FC,Gene 7474,0.13
same,WNT10B log2FC,Gene 7480,-0.49
same,WNT9A log2FC,Gene 7483,0.04
same,XPC log2FC,Gene 7508,0.59
same,XRCC2 log2FC,Gene 7516,-0.60
same,YWHAG log2FC,Gene 7532,-0.88
same,ZNF16 log2FC,Gene 7564,0.34
same,ZBTB17 log2FC,Gene 7709,0.30
same,PTP4A1 log2FC,Gene 7803,-0.61
same,EVI5 log2FC,Gene 7813,0.44
same,ALMS1 log2FC,Gene 7840,0.65
same,NR4A3 log2FC,Gene 8013,0.34
same,NUP214 log2FC,Gene 8021,-0.41
same,FOSL1 log2FC,Gene 8061,-2.53
same,CUL5 log2FC,Gene 8065,-0.23
same,YEATS4 log2FC,Gene 8089,1.06
same,HMGA2 log2FC,Gene 8091,-1.51
same,CHAF1B log2FC,Gene 8208,-0.0543
same,CLTCL1 log2FC,Gene 8218,-0.03
same,USP9X log2FC,Gene 8239,0.62
same,SMC1A log2FC,Gene 8243,0.14
same,CDC7 log2FC,Gene 8317,0.32
same,RAD54L log2FC,Gene 8438,-0.18
same,CUL4B log2FC,Gene 8450,0.75
same,CUL4A log2FC,Gene 8451,0.38
same,CUL1 log2FC,Gene 8454,0.21
same,KLF11 log2FC,Gene 8462,1.20
same,OFD1 log2FC,Gene 8481,0.89
same,PKP4 log2FC,Gene 8502,0.15
same,GAS7 log2FC,Gene 8522,-0.00153
same,DGKZ log2FC,Gene 8525,-0.37
same,CAMK1 log2FC,Gene 8536,-0.0329
same,CDC14B log2FC,Gene 8555,0.10
same,CDK10 log2FC,Gene 8558,0.17
same,MADD log2FC,Gene 8567,0.75
same,DYNLL1 log2FC,Gene 8655,-1.05
same,TNKS log2FC,Gene 8658,0.82
same,BECN1 log2FC,Gene 8678,0.35
same,CDC23 log2FC,Gene 8697,0.30
same,CRADD log2FC,Gene 8738,-0.08
same,CCNK log2FC,Gene 8812,-0.50
same,BANF1 log2FC,Gene 8815,-0.32
same,CDK5R1 log2FC,Gene 8851,-0.33
same,IER3 log2FC,Gene 8870,-2.26
same,SPHK1 log2FC,Gene 8877,-0.42
same,CDC16 log2FC,Gene 8881,0.66
same,CCNA1 log2FC,Gene 8900,0.11
same,TIMELESS log2FC,Gene 8914,0.20
same,PHOX2B log2FC,Gene 8929,-0.0327
same,MBD4 log2FC,Gene 8930,0.29
same,BTRC log2FC,Gene 8945,0.17
same,WASL log2FC,Gene 8976,0.10
same,RNF8 log2FC,Gene 9025,-0.06
same,PRC1 log2FC,Gene 9055,0.34
same,USP2 log2FC,Gene 9099,-0.07
same,USP8 log2FC,Gene 9101,0.76
same,SMC3 log2FC,Gene 9126,1.35
same,EXO1 log2FC,Gene 9156,-0.12
same,ARHGEF2 log2FC,Gene 9181,-0.51
same,ZW10 log2FC,Gene 9183,0.27
same,BUB3 log2FC,Gene 9184,0.44
same,NOLC1 log2FC,Gene 9221,-0.67
same,CCPG1 log2FC,Gene 9236,1.09
same,MAPKAPK2 log2FC,Gene 9261,-0.19
same,PIWIL1 log2FC,Gene 9271,0.0443
same,RECQL5 log2FC,Gene 9400,0.48
same,ROCK2 log2FC,Gene 9475,0.20
same,PSMF1 log2FC,Gene 9491,-0.34
same,VPS4B log2FC,Gene 9525,0.64
same,CLOCK log2FC,Gene 9575,0.03
same,MAD2L1BP log2FC,Gene 9587,-0.27
same,ARHGEF10 log2FC,Gene 9639,0.19
same,MDC1 log2FC,Gene 9656,-0.21
same,CEP135 log2FC,Gene 9662,0.43
same,KIAA0430 log2FC,Gene 9665,0.91
same,CROCC log2FC,Gene 9696,-0.11
same,ESPL1 log2FC,Gene 9700,0.72
same,CEP57 log2FC,Gene 9702,1.20
same,UTP14C log2FC,Gene 9724,0.24
same,KNTC1 log2FC,Gene 9735,0.58
same,RASSF2 log2FC,Gene 9770,0.56
same,CKAP5 log2FC,Gene 9793,0.44
same,SFI1 log2FC,Gene 9814,0.17
same,RB1CC1 log2FC,Gene 9821,1.48
same,MELK log2FC,Gene 9833,0.25
same,GINS1 log2FC,Gene 9837,-0.84
same,MAGI2 log2FC,Gene 9863,0.33
same,TLK1 log2FC,Gene 9874,0.44
same,POM121 log2FC,Gene 9883,-0.58
same,KLHL21 log2FC,Gene 9903,0.49
same,DCLRE1A log2FC,Gene 9937,0.44
same,USP3 log2FC,Gene 9960,0.29
same,THOC1 log2FC,Gene 9984,0.38
same,DMTF1 log2FC,Gene 9988,0.44
same,CASP8AP2 log2FC,Gene 9994,0.61
same,PDCD6IP log2FC,Gene 10015,0.60
same,BCL2L11 log2FC,Gene 10018,0.09
same,CHAF1A log2FC,Gene 10036,-0.38
same,PARP3 log2FC,Gene 10039,0.48
same,TOM1L1 log2FC,Gene 10040,0.60
same,SMC4 log2FC,Gene 10051,0.76
same,ACTR2 log2FC,Gene 10097,-0.39
same,RAD50 log2FC,Gene 10111,0.41
same,KIF20A log2FC,Gene 10112,0.59
same,OPTN log2FC,Gene 10133,0.73
same,AKAP9 log2FC,Gene 10142,1.37
same,PSME3 log2FC,Gene 10197,-1.22
same,MPHOSPH9 log2FC,Gene 10198,0.40
same,MPHOSPH6 log2FC,Gene 10200,-0.88
same,MAEA log2FC,Gene 10296,-0.11
same,PAK4 log2FC,Gene 10298,-0.42
same,NPM2 log2FC,Gene 10361,-0.11
same,HMG20B log2FC,Gene 10362,0.52
same,CITED2 log2FC,Gene 10370,2.31
